Measurements as given in PMC3735429, “Plasmodium falciparum encodes a conserved active inhibitor-2 for Protein Phosphatase type 1: perspectives for novel anti-plasmodial therapy” (BMC Biology, 2013).
Where two headings read alike, the source gives them in different places. No end group written: not given here.

Assays:
Plasmodium falciparum = settings: ref [1]-[3]; cited from earlier work
Source text: During its life cycle, Plasmodium falciparum, the deadliest malaria parasite for humans, undergoes several successive rounds of mitosis to amplify parasite populations and consequently to increase the rate of its transmission. Among the essential actors in the growth and division of the parasite are kinases and phosphatases. […] Subsequently, the identification of kinases and phosphatases and their central functions in P. falciparum[4-9] ...

HB3 P. falciparum strain = assay: Growth inhibition assay of P. falciparum HB3 (SYBR Green I, flow cytometry); assay type: cell-based, Plasmodium falciparum
Procedure: (§1) Assays were carried out in 96-well plates with a starting parasitemia of 0.5% at a haematocrit of 1% using SYBR Green I [81]. The peptides were added to the culture at different concentrations ranging from 80 μM to 1.25 μM (final concentrations) in a volume of 250 μl of RPMI-AlbuMAX (0.5%) and incubated for further 72 hr to allow all stages to complete at least one cycle. Cultures were stained for 30 minutes in the dark with SYBR Green I 1X (Invitrogen) diluted in 20 mM Tris pH8.8, 138 mM NaCl, and fixed with 1% paraformaldehyde. Fixed pRBC were stored at 4°C in the dark until flow cytometry analysis.
Parasite growth was assessed by flow cytometry on a FACSCalibur (Becton-Dickinson). Infected and uninfected erythrocytes were gated on the basis of their forward scatter (FSC) and side scatter (SSC) signals. Fluorescence analysis (Green fluorescence, FL-1 filter) was performed with CellQuest software (FACScan; BD Biosciences) on a total of 100,000 acquired events. Fluorescence was observed as described by Izumiyama et al.[82] on a two-parameters dot plot (FL1-SSC). Fluorescence of non-infected RBC was adjusted to plot between 10^0 and 10^1. Results are expressed in percentage of fluorescence among total RBC. […]

3D7 P. falciparum strain = assay: Growth inhibition assay of P. falciparum 3D7 (SYBR Green I, flow cytometry); assay type: cell-based, Plasmodium falciparum
Procedure: as §1
Parasite growth was assessed by flow cytometry on a FACSCalibur (Becton-Dickinson). Infected and uninfected erythrocytes were gated on the basis of their forward scatter (FSC) and side scatter (SSC) signals. Fluorescence analysis (Green fluorescence, FL-1 filter) was performed with CellQuest software (FACScan; BD Biosciences) on a total of 100,000 acquired events. Fluorescence was observed as described by Izumiyama et al.[82] on a two-parameters dot plot (FL1-SSC). Fluorescence of non-infected RBC was adjusted to plot between 10^0 and 10^1. Results are expressed in percentage of fluorescence among total RBC.
The drug concentration resulting in 50% inhibition of parasite growth (IC50) was assessed by determining the drug concentration corresponding to 50% of the parasitaemia observed in the peptide-free control wells. The IC50 value was calculated using the ICEstimator software based on a non-linear regression analysis of log-based dose–response curves. Results are presented as means ± sem.

[1] = target: His6-PfPP1 (Plasmodium falciparum)
Xenopus oocytes = assay: Induction of germinal vesicle breakdown (GVBD, G2/M transition) in microinjected Xenopus oocytes; assay type: cell-based; settings: 100 ng injected; monitored 15 h; sets of 20 oocytes, repeated at least three times
Procedure: Preparation of Xenopus oocytes and microinjection experiments were performed as previously described. Briefly, in each assay, 20 oocytes removed from at least two or three different animals were microinjected with His6-PfI2 (wild type, deleted or mutated) recombinant proteins or PfI2/PfI3 derived peptides. […] Okadaic acid was used as a positive control for ability of oocytes to respond to PP inhibition (data not shown). Regarding the pre-injection experiments, deleted, mutated His6-PfI2 proteins or PfI2/PfI3 derived peptides were pre-injected (100 ng) in the oocytes 1 hour before the His6-PfI2WT injection (100 ng). GVBD was detected by the appearance of a white spot at the apex of the animal pole after 15 hours. Oocyte extracts were prepared as follow: oocytes were lysed in buffer (50 mM HEPES pH 7.4, 500 mM NaCl, 0.05% SDS, 0.5% Triton X100, 5 mM MgCl2, 1 mg/ml bovine serum albumin, 10 μg/ ml leupeptin, 10 μg/ml aprotinin, 10 μg/ml soybean trypsin inhibitor, 10 μg/ml benzamidine, 1 mM PMSF, 1 mM sodium vanadate) and centrifuged at 4°C for 15 min at 10,000 g. To detect His6-PfI2 proteins in injected extracts, electrophoresis followed by western-blot analysis performed on oocytes extracts. The membranes were developed with anti-His mAb antibody (Qiagen).

PfPP1 [2] = assay: PfPP1 phosphatase activity assay with pNPP substrate; assay type: biochemical, Plasmodium falciparum; settings: recombinant PfPP1 pre-incubated 30 min at 37°C with different concentrations of protein before pNPP; maximal effect; means of four independent experiments in duplicate
Procedure: The activity of PfPP1 with p-nitro-phenylphosphate (pNPP) was assayed as previously described. To investigate the role of PfI2 recombinant proteins or PfI2/PfI3 derived peptides on His6-PfPP1 activity, different amounts of proteins were added to 1 μg of PfPP1 recombinant protein and preincubated for 30 min at 37°C before testing the PfPP1 phosphatase activity. Okadaic acid was used as control (data not show). Results are presented as mean of increase or decrease of phosphatase activity in comparison to His6-PfPP1 incubated in the reaction buffer.

PfPP1 [3] = assay: Yeast two-hybrid PfI2-PfPP1 interaction; assay type: binding, Plasmodium falciparum; settings: SD medium lacking leucine, tryptophan, histidine and adenine; 4 days
Source text: The full length PfPP1 was cloned into the pGBKT7 vector containing the DNA binding domain of gal4 (Gal4-BD) and wild-type, deleted or mutated PfI2 (PfI2WT, PfI2(1–94), PfI2(19–144), PfI2W16A, PfI2Y103A) into pGADT7 containing the gal4 activation domain (Gal4-AD). The pGBKT7-Gal4-BD-PfPP1 construct was used to transform Y187 strain and maintained on SD media without tryptophan (SD-W). The pGADT7-Gal4-AD-PfI2 constructs were used to transform AH 109 strain and maintained on SD media lacking leucine (SD-L). Mating these two haploid strains results in the formation of diploid strain, which is viable on SD media lacking leucine and tryptophan (SD-LW). Interaction of PfPP1 with the different versions of PfI2 proteins were evaluated by their capacity to grow on selective media: SD medium lacking leucine, tryptophan and histidine (SD-LWH) and SD medium lacking leucine, tryptophan, histidine and adenine (SD-LWHA) for 4 days. Yeasts transformed with empty vector or with pGBKT7 laminine were used as controls.

## C=C1[C@@H](O)[C@@H]2O[C@]3(CC[C@H](/C=C/[C@@H](C)[C@@H]4CC(C)=C[C@@]5(O[C@H](C[C@@](C)(O)C(=O)O)CC[C@H]5O)O4)O3)CC[C@H]2O[C@@H]1[C@@H](O)C[C@H](C)[C@H]1O[C@@]2(CCCCO2)CC[C@H]1C [okadaic acid]
Plasmodium falciparum
  inhibition of parasite growth in vitro: drastically inhibited parasite growth in vitro

## VKKKKIKREIKIKKTISWKKTISW [P1]
HB3 P. falciparum strain; HB3 strain, 72 h
  IC50: 15 µM
3D7 P. falciparum strain; 3D7 strain, 72 h
  IC50: 23.8 µM

## VKKKKIKREIKIKVVRWKVVRW [P5]
HB3 P. falciparum strain; 72 hr, 2 different batches, means ± sem, read-out: HB3 IC50
  IC50: 8.79 µM
3D7 P. falciparum strain; 72 hr, 7 independent experiments, 3 batches of peptide, means ± sem, read-out: 3D7 IC50
  IC50: 9.72 µM
3D7 P. falciparum strain; at 80 μM, 72 hr, blood stage 3D7, means of seven independent experiments in duplicate
  parasite growth inhibition: up to 90%

B1: His6-PfI2WT (natural protein)
chain: MKKKVDKSVTKKTISWDEVTINEQDKERGSRMKILEPNTPFNFILMDSASEDEASKYGDVKGSDEGQNNIADDLINKLNQLVEKQENKGVSNIDFKEKRKKHYNEYKMLQKLRKSGTLDDIDEEYKPDNKDSNCDNSNMNESEE
[1]
  phosphatase activity of recombinant PfPP1 on pNPP after pre-incubation for 30 min at 37°C with different concentrations of PfI2WT; inhibition: 80%

B2: PfI2WT: wild-type recombinant His-tagged P. falciparum inhibitor-2, 144 amino acids (protein)
chain: B1 chain
modifications: left off: His6, end not stated, kept
Xenopus oocytes
  GVBD induced: ~ 85%
PfPP1 [2]
  decrease in PfPP1 phosphatase activity: up to 80%
PfPP1 [3]
  growth of diploid yeast with PfPP1 on SD-LWHA (stringent conditions): still able to grow
